From US20250143306A1, “COMBINATION FOR IMPROVING PLANT GROWTH AND/OR YIELD, FORMULATION AND METHOD FOR INCREASING PLANT GROWTH, STRESS RESISTANCE, AND YIELDS, AND USE THEREOF” (INSTITUTE OF EXPERIMENTAL BOTANY CAS CR, V.V.I., priority 2022, published 2025)
Marks after values point to notes of the source that are not given here.

Tests used:
Assay type in all cases: in vivo
[1] = test system: Winter wheat variety Barrel; test: Nitrogen content in grains of field-grown winter wheat, Kjeldahl method (Example 4); conditions: MTU 0.4 g/ha, pyroglutamic acid 40 g/ha
Procedure: (§1) The field experiments were done in 2019 in the UK and they were performed in accordance with the Good Experimental Practice criteria. Winter wheat variety Barrel was used. MTU was applied by spraying at a concentration of 10 μM (2 mg/L) and a dosage of 200 L/ha (0.4 g/ha of MTU). Pyroglutamic acid was used at 40 g/ha, applied at a dose of 200 l/ha in a water solution.
Wheat grains used to make bread require a grain nitrogen content of 2.1% (w/w) or higher. Grains from each sample treatment from the experiment described in Example 3 were analyzed for nitrogen content. The analysis was done using a Kjeldahl method (Kjeldahl, J. (1883) “New method for the determination of nitrogen in organic substances), Zeitschrift für analytische Chemie, 22 (1): 366-383.

[2] = test system: wheat (Triticum aestivum) cv. Balitus; test: Root and shoot dry weight and total chlorophyll content of wheat under drought stress conditions (Example 2)
Procedure: To investigate the effect of the combinations on the weight parameters, and the total content of chlorophyll, seeds of wheat (Triticum aestivum) cv. Balitus were sown in a hydroponic growing system (Araponics, Liege, Belgium) using Hoagland's solution (control). Twenty days after sowing plants (except for control plants) were sprayed by either MTU (10 μM) or by nitrogen utilization enhancers alone or with a combination of MTU (10 μM) and nitrogen utilization enhancers. The plants were grown in a glasshouse at 20-28° C. under a combination of natural and artificial light. Since the treatment (20 days after sowing), the plants received low water doses. […] The root dry weight (RDW), shoot dry weight (SDW), and total chlorophyll content (TCC) of at least 25 plants were measured at the end of the experiment—45 days after the plants had been sown. RDW and SDW were recorded after drying the plants at 70° C. for 2 days. The chlorophyll content of each plant was measured by SPAD meter reading at the end of the experiment and TCC was calculated as SPAD value per SDW.

[3] = test system: Winter wheat variety Barrel; test: Grain yield of field-grown winter wheat (Example 3); conditions: MTU 0.4 g/ha, pyroglutamic acid 40 g/ha, UK 2019
Procedure: as §1

[4] = test system: sunflower (Helianthus sp. L.); test: Seed yield of field-grown sunflower (Example 6); conditions: Hungary 2020, MTU 2 mg/L at 300 L/ha, pyroglutamic acid 50 g/ha
Procedure: Seeds of sunflower (Helianthus sp. L.) were sown in Hungary in 2020 in accordance with the Good Experimental Practice criteria. MTU was applied by spraying at a concentration of 10 μM (2 mg/L) and a dosage of 300 L/ha. Pyroglutamic acid was used at 50 g/ha, applied at a dosage of 300 L/ha in a water solution.

[5] = test system: Oilseed rape variety Elgar (2018) and Elizze (2019); test: Grain yield of field-grown oilseed rape (Example 5); conditions: MTU 0.4 g/ha, pyroglutamic acid 40 g/ha
Procedure: Oilseed rape variety Elgar (2018) and Elizze (2019) were grown in the UK in the years 2018 and 2019. Experiments were performed in accordance with the Good Experimental Practice criteria. MTU was applied by spraying at a concentration of 10 μM (2 mg/L) and a dosage of 200 L/ha (0.4 g/ha of MTU). Pyroglutamic acid was used at 40 g/ha, applied at a dosage of 200 L/ha in a water solution.

[6] = test system: wheat (Triticum aestivum) cv. Balitus; test: Root and shoot dry weight and leaf nitrogen content of hydroponically grown wheat under optimal conditions (Example 1)
Procedure: To investigate the effect of the combinations on the weight parameters, the seeds of wheat (Triticum aestivum) cv. Balitus were sown in a hydroponic growing system (Araponics, Liege, Belgium) using Hoagland's solution (control). Twenty days after sowing, plants (except for control plants) were sprayed by aqueous solution of either MTU (10 μM) or by a nitrogen utilization enhancer alone or by a combination of MTU (10 μM) with the nitrogen utilization enhancer. The plants were grown in the Czech Republic in a glasshouse at 16-25° C. under natural and artificial light during the winter period. The root dry weight (RDW), shoot dry weight (SDW) and the nitrogen content in the leaves of at least 30 plants were measured 45 days after the plants had been sown. RDW and SDW were recorded after drying the plants at 70° C. for 2 days.

[7] = test system: winter wheat plants; test: Root dry weight of winter wheat, method of testing the synergistically effective amounts of MTU and PCA (optimal conditions)
Procedure: The synergistically effective amounts of MTU and pyroglutamic acid (PCA) were determined by the method of determining the root growth of winter wheat plants. […].
As a first control, MTU was applied to another group of the winter wheat plants at the following amounts: 1, 2, 4 and 8 mg/liter of the composition.
As a second control, PCA was applied to another group of the winter wheat plants at the amount of 200 mg/liter of the composition.
As a negative control, another group of the winter wheat plants was applied only water in the same amount as the compositions applied to the above-described groups.
The plants were then grown at 20° C. under natural light for a period of 45 days. The root dry weight (RDW) of at least 30 plants was measured 45 days after the plants had been sown for each group. RDW was recorded after drying the plants at 70° C. for 2 days.
The relative increase in RDW was calculated as % of control (Table 1). The % of control for combinations containing MTU: PCA in ratios 1:200, 2:200 and 4:200 was higher than the sum of % of control of only PCA group (+8.8%) with the MTU group (1, 2 or 4 mg).

[8] = UK 2018, application at BBCH 13
[9] = UK 2018, application at BBCH 65
[10] = UK 2019, application at BBCH 65
[11] = UK 2019, application at BBCH 70
[12] = 200 mg in 1 liter of composition

Structure (SMILES): COCCNC(=O)Nc1cnns1 [MTU, 1-(2-methoxyethyl)-3-(1,2,3-thiadiazol-5yl)urea]
- Nitrogen content % of control ([1]; application at BBCH 32): −9.5%
- Nitrogen content (%) of grains ([1]; application at BBCH 32): 1.82%
- Nitrogen content % of control ([1]; application at BBCH 39): −2.0%
- Nitrogen content (%) of grains ([1]; application at BBCH 39): 1.97%
- Nitrogen content % of control ([1]; application at BBCH 50-55): −10.0%
- Nitrogen content (%) of grains ([1]; application at BBCH 50-55): 1.81%
- RDW (root dry weight) ([2]; concentration 2 mg/L): 0.74 g
- SDW (shoot dry weight) ([2]; concentration 2 mg/L): 1.28 g
- Yield % of control ([3]; application at BBCH 32): +2.4%
- Yield (grain) ([3]; application at BBCH 32): 10.225 t/ha
- Yield % of control ([3]; application at BBCH 39): +2.4%
- Yield (grain) ([3]; application at BBCH 39): 10.230 t/ha
- Yield % of control ([3]; application at BBCH 50-55): +0.5%
- Yield (grain) ([3]; application at BBCH 50-55): 10.033 t/ha
- Yield % of control ([4]; application at BBCH 16-18): +12.0%
- Yield (seed) ([4]; application at BBCH 16-18): 3.08 t/ha
- Yield % of control ([4]; application at BBCH 55): +4.7%
- Yield (seed) ([4]; application at BBCH 55): 2.88 t/ha
- Yield % of control [5, 8]: +2.9%
- Yield (grain) [5, 8]: 3.90 t/ha
- Yield % of control [5, 9]: +4.8%
- Yield (grain) [5, 9]: 4.61 t/ha
- Yield % of control [5, 10]: +6.2%
- Yield (grain) [5, 10]: 3.93 t/ha
- Yield % of control [5, 11]: +3.8%
- Yield (grain) [5, 11]: 3.84 t/ha
- Nitrogen content in the leaves ([6]; concentration 2 mg/L): 4.47 weight %
- RDW % of control ([6]; concentration 2 mg/L): +3.8%
- RDW (root dry weight) ([6]; concentration 2 mg/L): 0.83 g
- SDW % of control ([6]; concentration 2 mg/L): +3.9%
- SDW (shoot dry weight) ([6]; concentration 2 mg/L): 1.58 g
- RDW % of control ([7]; 1 mg in 1 liter of composition): +5.5%
- RDW (root dry weight) ([7]; 1 mg in 1 liter of composition): 0.96 g
- RDW % of control ([7]; 2 mg in 1 liter of composition): +7.7%
- RDW (root dry weight) ([7]; 2 mg in 1 liter of composition): 0.98 g
- RDW % of control ([7]; 4 mg in 1 liter of composition): +15.4%
- RDW (root dry weight) ([7]; 4 mg in 1 liter of composition): 1.05 g
- RDW % of control ([7]; 8 mg in 1 liter of composition): +18.1%
- RDW (root dry weight) ([7]; 8 mg in 1 liter of composition): 1.07 g

Structure (SMILES): O=C1CC[C@@H](C(=O)O)N1 [Pyroglutamic acid, pyroglutamic acid]
- Nitrogen content % of control ([1]; application at BBCH 32): −7.0%
- Nitrogen content (%) of grains ([1]; application at BBCH 32): 1.87%
- Nitrogen content % of control ([1]; application at BBCH 39): −5.5%
- Nitrogen content (%) of grains ([1]; application at BBCH 39): 1.90%
- Nitrogen content % of control ([1]; application at BBCH 50-55): −10.0%
- Nitrogen content (%) of grains ([1]; application at BBCH 50-55): 1.81%
- RDW % of control ([2]; concentration 200 mg/L): +11.9%
- RDW (root dry weight) ([2]; concentration 200 mg/L): 0.75 g
- SDW % of control ([2]; concentration 200 mg/L): −1.6%
- SDW (shoot dry weight) ([2]; concentration 200 mg/L): 1.2 g
- RDW % of control ([2]; concentration 400 mg/L): +14.9%
- RDW (root dry weight) ([2]; concentration 400 mg/L): 0.77 g
- SDW % of control ([2]; concentration 400 mg/L): +0.8%
- SDW (shoot dry weight) ([2]; concentration 400 mg/L): 1.23 g
- Yield % of control ([3]; application at BBCH 32): +1.8%
- Yield (grain) ([3]; application at BBCH 32): 10.167 t/ha
- Yield % of control ([3]; application at BBCH 39): +2.0%
- Yield (grain) ([3]; application at BBCH 39): 10.183 t/ha
- Yield % of control ([3]; application at BBCH 50-55): +2.6%
- Yield (grain) ([3]; application at BBCH 50-55): 10.241 t/ha
- Yield % of control ([4]; application at BBCH 16-18): +5.0%
- Yield (seed) ([4]; application at BBCH 16-18): 2.89 t/ha
- Yield % of control ([4]; application at BBCH 55): +6.3%
- Yield (seed) ([4]; application at BBCH 55): 2.92 t/ha
- Yield % of control [5, 8]: +5.0%
- Yield (grain) [5, 8]: 3.97* t/ha
- Yield % of control [5, 9]: +23.9%
- Yield (grain) [5, 9]: 5.45* t/ha
- Yield % of control [5, 10]: +3.5%
- Yield (grain) [5, 10]: 3.83 t/ha
- Yield % of control [5, 11]: +5.4%
- Yield (grain) [5, 11]: 3.90 t/ha
- RDW % of control ([6]; concentration 200 mg/L): +6.3%
- RDW (root dry weight) ([6]; concentration 200 mg/L): 0.85 g
- SDW % of control ([6]; concentration 200 mg/L): +6.8%
- SDW (shoot dry weight) ([6]; concentration 200 mg/L): 1.63 g
- Nitrogen content in the leaves ([6]; concentration 400 mg/L): 4.65 weight %
- RDW % of control ([6]; concentration 400 mg/L): +13.8%
- RDW (root dry weight) ([6]; concentration 400 mg/L): 0.91 g
- SDW % of control ([6]; concentration 400 mg/L): +10.5%
- SDW (shoot dry weight) ([6]; concentration 400 mg/L): 1.68 g
- RDW % of control [7, 12]: +8.8%
- RDW (root dry weight) [7, 12]: 0.99 g
